These results are taken from the METLIN SMRT retention time set (Domingo-Almenara et al. 2019).

The series in a line: gradient 5% acetonitrile 3 min, to 50% in 2 min, to 85% in 15 min, held 3 min, 100 µL/min. To be noted: column: Zorbax Extend-C18 2.1 x 50 mm; eluents: water / acetonitrile, 0.1% formic acid. The procedure, abridged:
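Pure standards were analyzed in mixtures of ~100 molecules using HPLC coupled to a quadrupole time-of-flight mass spectrometer, in both positive and negative ionization mode. Separation used a Zorbax Extend-C18 column (2.1 × 50 mm, 1.8 μm) at 100 μL/min, with water and acetonitrile each containing 0.1% formic acid. Dead and dwell volumes were 40 μL and 900 μL, and data were collected over 3 months. Retention time was read from computationally picked adduct peaks, each inspected manually.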
In turn, `Cc1cc2nn(CC(=O)NCc3ccccc3)c(=O)n2c(-c2cccc(F)c2)n1` displayed an RP-LC retention time of 627 s.
Turning to `Cn1ncc2c(N3CCSCC3)nc(C(=O)N3CCOCC3)nc21`, the RP-LC retention time came to 635 s.
`C=C(C)[C@H]1O[C@H]2CC[C@@]3(C)[C@@](O)(CC[C@H]4[C@@H]5OC(C)(C)[C@H]6C[C@@H]7C(=C)Cc8c(Cl)cc9[nH]c(c5c9c8[C@@]76O)[C@@]43C)[C@]23O[C@@H]3[C@H]1O` returned an RP-LC retention time of 1180 s.
Compound `Cc1ccc2c(c1)N(C(=O)Cn1cnc3c(sc4nc(-c5ccccc5)ccc43)c1=O)CCO2` came in with an RP-LC retention time of 1130 s.
Take `CCCC(NC(=O)c1ccc(OCC)c(OCC)c1)C(=O)Nc1nc2ccccc2[nH]1` (stereo not drawn): the RP-LC retention time was 733 s.
As to `CCCc1nc(-c2c(C)cc(C)nc2NC(=O)C2CCCCC2)no1`, the RP-LC retention time is 876 s.
Consider `CCNC(=O)C1CCCN(c2nc3ncn(CC(=O)NCc4ccc(Cl)cc4)c(=O)c3s2)C1` (stereo not drawn), for which the RP-LC retention time stood at 696 s.
For `CCc1ccc(C(=O)N2CCC(n3c(-c4ccoc4)nc4cccnc43)C2)cc1` (stereo not drawn), the RP-LC retention time was found to be 809 s.
The figure for `c1ccc(-c2cc(N3CCN(c4ccccn4)CC3)nn2-c2ccccc2)cc1` is 831 s; for `O=C(CSc1nccnc1N1CCN(c2ccccc2)CC1)Nc1ccc(F)cc1F` it is 1110 s.
Next, `CC(C)NC(=O)c1cc(-c2ccncc2)n[nH]1`: 553 s.
Take `Cc1nn(CC(=O)NC2CCCCCC2)c(=O)c2c(-n3cccc3)n(-c3cccc(F)c3)nc12`: the RP-LC retention time worked out at 1090 s.
The figure for `COc1cc(-c2noc(Cn3ccnc3C)n2)cc(OC)c1OC` is 596 s; for `COC(=O)c1ccc2c(=O)n(-c3ccc4c(c3)OCO4)c(N3CCCCC3)nc2c1` it is 1080 s.
Next, `CC(C)Cn1c(=O)c(C(=O)NCCN2CCCCC2)nc2cccnc21`: 552 s; `CCc1ccc(NS(=O)(=O)c2c(C)sc(C)c2-c2cc(C(F)(F)F)on2)cc1`: 1240 s.
`Cc1ccccc1CNS(=O)(=O)c1c[nH]c2ncccc12`: the RP-LC retention time is 730 s.
`CCN1CCN(CCCNC(=O)c2sc3ncccc3c2-n2c(C)ccc2C)CC1` registered an RP-LC retention time of 607 s.
The compound `CCOC(=O)c1noc2nc(C)nc(Nc3cccc(Cl)c3)c12` returned an RP-LC retention time of 1200 s.
The compound `Cc1nc2ccn(Cc3ccco3)c(=O)c2cc1C(=O)NC1CCCCC1` displayed an RP-LC retention time of 751 s.
In turn, `Cc1nc(-c2cc(S(=O)(=O)Nc3ccc(F)cc3F)c(C)s2)sc1C` gave an RP-LC retention time of 1090 s.
Next, `Fc1ccc(C(OCCCc2cnc[nH]2)c2ccc(F)cc2)cc1`: 833 s; `Cc1nn(-c2ccc(F)cc2)c2nc(N3CCCC(C(=O)NC4CCCCCC4)C3)sc12` (stereo not drawn): 1240 s; `O=C(CN1C(=O)CCc2cc(Br)ccc21)N1CCN(c2ccccc2)CC1`: 913 s.
In turn, `O=C(c1ccc(Cl)c(Cl)c1)N1CCN(c2nc(-c3ccccc3)cs2)CC1` yielded an RP-LC retention time of 1210 s.
In turn, `COc1ccc(NC(=O)c2cn(-c3ccc(C#N)cc3)cn2)cc1OC` displayed an RP-LC retention time of 683 s.
The compound `COc1ccc(OC)c(CNC(=O)C2CCN(S(=O)(=O)c3cn(C)cn3)CC2)c1` displayed an RP-LC retention time of 663 s.
Take `CCC(C)NC(=O)N1CC(Oc2ccccc2-c2nc(-c3ccccc3)no2)C1` (stereo not drawn): the RP-LC retention time is 999 s.
With `Cc1ccc2oc(CN3CCN(C(=O)Nc4ccccc4F)CC3)nc2c1`, the RP-LC retention time is 699 s.
On to `CCn1cc(C)c(C(=O)O)c1CC(=O)N1CCC(N2CCCCC2)CC1`, for which the RP-LC retention time amounted to 587 s.
`Cc1cc(Cl)ccc1NS(=O)(=O)c1ccc2onc(C(=O)N3CCCC3)c2c1` had an RP-LC retention time of 1030 s.
With `Cc1oc(-c2[nH]ncc2C(=O)N2CCOCC2)cc1S(=O)(=O)Nc1ccccc1`, the RP-LC retention time turned out to be 655 s.
For the compound `CCOC(=O)C1CCc2sc(NC(=O)CNC(=O)c3ccc(=O)[nH]c3)nc21` (stereo not drawn), the RP-LC retention time stood at 591 s.
Regarding `COc1ccc(-c2nc3nc(C)cc(C)n3c2Nc2c(C)cccc2C)cc1`, the RP-LC retention time is 766 s.
As to `CC(=O)Nc1cc([N+](=O)[O-])c(N(C)S(=O)(=O)c2ccccc2)c2ccccc12`, the RP-LC retention time worked out at 781 s.
`COc1ccc(CC(=O)N2CCCC2COc2ccc(C(=O)N3CCCC3)cc2)cc1` (stereo not drawn): the RP-LC retention time came to 824 s.
The figure for `COCc1nnc2n1CCC(NC(=O)c1ccoc1)CC2` (stereo not drawn) is 561 s; for `Cc1ccc(S(=O)(=O)N2c3ccccc3NC3=C(C(=O)CCC3)C2c2ccco2)cc1` (stereo not drawn) it is 837 s.
In turn, `COC(=O)c1ccc2c(=O)n(-c3cc(OC)cc(OC)c3)c(N3CCOCC3)nc2c1` gave an RP-LC retention time of 903 s.
Take `COc1ccc(-c2ccc(=O)n(Cc3nc(-c4ccccc4)no3)n2)cc1OC`: the RP-LC retention time amounted to 900 s.
Compound `O=C(Cn1nc2nc(N3CCCC3)ccn2c1=O)Nc1ccc(F)c(Cl)c1` came in with an RP-LC retention time of 708 s.
As for `CCCCOc1ccc(-c2csc(NC(=O)c3cc4cccc(OC)c4oc3=O)n2)cc1`, the RP-LC retention time amounted to 897 s.
Next, `CCc1ccc(-c2cn3cc(C(=O)NCCN4CCN(C)CC4)ccc3n2)cc1`: 573 s.
`O=c1ccn(-c2ccc(Cl)cc2)nc1-c1nc(-c2cccc(Br)c2)no1` gave an RP-LC retention time of 1080 s.
The figure for `COc1cc(Cl)c(NS(=O)(=O)c2cc(-c3c(C)noc3NC(C)=O)ccc2OC)c(OC)c1` is 784 s.
Consider `CCOC(=O)CC1=CC(SCC(=O)N(C)c2ccccc2)=Nc2ccccc2N1`, for which the RP-LC retention time was 1100 s.
Turning to `Cc1cc2nn(CC(=O)Nc3ccccc3F)c(=O)n2c(Nc2ccccc2)n1`, the RP-LC retention time worked out at 985 s.
On to `COCCn1nc2n(c1=O)CCN(C(=O)C1(c3ccccc3)CCCC1)CC2`, for which the RP-LC retention time is 730 s.
The figure for `COc1ccc(OCc2noc(CNS(=O)(=O)c3ccc(NC(C)=O)cc3)n2)cc1` is 710 s; for `Cc1cc(N2CCN(C)CC2)nc(N2CCN(S(=O)(=O)c3cc(C)c(C)cc3C)CC2)n1` it is 598 s; for `O=C(NCCc1ccccc1)N1CCCC(Cn2c(C3CC3)nc3cccnc32)C1` (stereo not drawn) it is 682 s.
`CC1CCCN(C(=O)Cn2nc(-c3nc(-c4ccc5c(c4)OCO5)no3)ccc2=O)C1` (stereo not drawn) gave an RP-LC retention time of 765 s.
`O=S(=O)(c1cccs1)N1CCc2nc(-c3ccccc3)ncc2C1` came in with an RP-LC retention time of 992 s.
Next, `O=C(Nc1nnc(SCc2nnc(-c3ccc4c(c3)OCO4)o2)s1)c1cccs1`: 815 s.
The figure for `O=C(c1nc(-c2ccnc(N3CCCCC3)c2)no1)N1CCN(C2CCCCC2)CC1` is 609 s.
`OC1(c2ccccn2)CCOC2(CCN(Cc3ccc(Cl)c(F)c3)CC2)C1` (stereo not drawn) gave an RP-LC retention time of 591 s.
`COc1ccc(/C=C/C(=O)Oc2cc(O)cc(O)c2)cc1` yielded an RP-LC retention time of 763 s.
The compound `Cc1noc(C)c1S(=O)(=O)NCCc1noc(-c2ccccc2)n1` gave an RP-LC retention time of 848 s.
As for `CCc1cc(C(=O)N2CCOCC2)nc2cc(-c3cccs3)nn12`, the RP-LC retention time came to 838 s.
The compound `O=C(c1ccncc1)N1CC(N(Cc2ccncc2)CC2CC2)C1` gave an RP-LC retention time of 519 s.
`CCOc1cc2ncc(C#N)c(Nc3ccc(F)c(Cl)c3)c2cc1NC(=O)/C=C/CN(C)C` returned an RP-LC retention time of 727 s.
In turn, `CC(=O)Nc1ccc(-n2cnc(C(=O)N3CCN(c4ccc(C)cc4)CC3)c2)nc1` had an RP-LC retention time of 682 s.
`CCN1C(=O)c2ccccc2Oc2ccc(C(=O)NCc3ccc(C)o3)cc21` had an RP-LC retention time of 910 s.
In turn, `CCOC(=O)c1c(C)[nH]c(C(=O)N2CCCC(C(=O)NCc3ccc(C)o3)C2)c1C` (stereo not drawn) yielded an RP-LC retention time of 790 s.
`COC1C(=O)N(CC2CC2)C12CCN(C(=O)C(C)C)CC2` (stereo not drawn) returned an RP-LC retention time of 686 s.
Compound `O=C(CN1C(=O)c2ccccc2C1=O)N1CCCN(c2nc3ncccc3o2)CC1` registered an RP-LC retention time of 681 s.
The compound `COc1cc(/C=C(\OC(C)=O)c2ccc3c(c2)OCO3)cc(OC)c1OC` had an RP-LC retention time of 924 s.
Regarding `CCCOC(=O)c1cnc2nc(C)ccc2c1NCc1ccc(OC)cc1`, the RP-LC retention time turned out to be 750 s.
Next, `CCn1cc(-c2ccc(OC)cc2)cc1C(=O)NC(C)c1cccnc1` (stereo not drawn): 693 s.
`COc1ccc2c(c1)C1(CCN(C(=O)c3ccccc3F)C1)C(=O)N2C` (stereo not drawn) had an RP-LC retention time of 752 s.
`COc1ccc(NC(=O)N2CCC(CC(=O)N3CCCCC3)CC2)cc1` displayed an RP-LC retention time of 706 s.
The figure for `Cc1sc(-c2cc(C(F)(F)F)on2)cc1S(=O)(=O)NCc1ccc(N(C)C)cc1` is 982 s.
Take `Cc1ccsc1C(=O)N1CCN(c2cc(-c3ccccc3)[nH]n2)CC1`: the RP-LC retention time was 744 s.
`Cc1nn(Cc2nc(-c3ccc(NC(=O)C4CCCCC4)cc3)oc2C)c(C)c1C` returned an RP-LC retention time of 1020 s.
For `COc1cc(C=CC(=O)CC(=O)C=Cc2ccc(O)c(OC)c2)ccc1O`, the RP-LC retention time was 891 s.
The compound `COCCNc1c(-c2ccc(F)cc2)nc2sc(C(=O)N(C)C)c(C)n12` returned an RP-LC retention time of 702 s.
`O=C(NCC1(O)CCc2ccccc21)Nc1ccccc1Cl` (stereo not drawn) registered an RP-LC retention time of 762 s.
As for `CCN1C(=O)C2(CCN(C(=O)c3cc(C)n(C)n3)CC2)c2ccccc21`, the RP-LC retention time came out at 750 s.
